The values that follow come from patent US20030232822A1, “Indole derivatives useful for the treatment of CNS disorders” (H. Lundbeck A/S, priority 2000, published 2003).

For data set [1], the target named is T1, human cloned dopamine D4.2 receptors (Homo sapiens, UniProt P21917, DEL265-296).
T1 construct: expressed in transfected cells; host or cells: CHO cells
T1 sequence (P21917 with tags, fused parts or gaps DEL265-296): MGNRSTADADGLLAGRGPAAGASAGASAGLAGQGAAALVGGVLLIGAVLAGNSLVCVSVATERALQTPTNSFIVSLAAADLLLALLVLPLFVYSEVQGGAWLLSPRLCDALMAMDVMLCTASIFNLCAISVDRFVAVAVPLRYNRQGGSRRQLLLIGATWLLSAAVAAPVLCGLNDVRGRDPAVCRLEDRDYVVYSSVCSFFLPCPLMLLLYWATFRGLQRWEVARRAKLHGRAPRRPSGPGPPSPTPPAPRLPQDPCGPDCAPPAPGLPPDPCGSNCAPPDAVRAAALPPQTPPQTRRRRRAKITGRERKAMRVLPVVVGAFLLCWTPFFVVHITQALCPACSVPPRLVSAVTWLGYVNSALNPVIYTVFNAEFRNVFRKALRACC
Briefly: Inhibition of the binding of [3H]YM-09151-2 to human dopamine D4.2 receptors. The settings on record: [3H]YM-09151-2 0.06 nM, membranes of CHO-cells; for D4-binding (% inhibition): at 50 nM. As to the method: Inhibition of the Binding of [^3H]YM-09151-2 to Human Dopamine D4.2 Receptors
By this method, the inhibition by drugs of the binding of [^3H]YM-09151-2 (0.06 nM) to membranes of human cloned dopamine D4.2 receptors expressed in CHO-cells is determined in vitro. Method modified from NEN Life Science Products, Inc., technical data certificate PC2533-10/96.

Data set [2] deals with T2, 5-HT2A receptors (Rattus norvegicus, UniProt P14842).
T2 construct: membranes from rat brain (cortex) in vitro; from tissue; host or cells: rat brain cortex membranes
T2 sequence (P14842 whole entry): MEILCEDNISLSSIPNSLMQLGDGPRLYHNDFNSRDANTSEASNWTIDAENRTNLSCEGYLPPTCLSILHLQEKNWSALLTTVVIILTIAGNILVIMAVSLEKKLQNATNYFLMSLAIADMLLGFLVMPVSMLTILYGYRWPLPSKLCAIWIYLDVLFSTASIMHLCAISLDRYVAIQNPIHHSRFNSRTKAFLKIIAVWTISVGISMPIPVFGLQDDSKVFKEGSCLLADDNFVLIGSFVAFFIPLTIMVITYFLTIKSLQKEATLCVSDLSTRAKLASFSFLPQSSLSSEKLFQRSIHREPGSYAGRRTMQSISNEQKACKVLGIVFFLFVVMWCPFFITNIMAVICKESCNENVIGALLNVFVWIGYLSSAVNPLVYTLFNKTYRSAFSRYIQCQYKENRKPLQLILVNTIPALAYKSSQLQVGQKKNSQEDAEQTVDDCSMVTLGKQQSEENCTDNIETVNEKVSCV
Briefly: Inhibition of the binding of [3H]Ketanserin to 5-HT2A receptors. The settings on record: for inhibition at 0.1 µM: read-out: 5-HT2A-binding (% inhibition); for 5-HT2A-binding (% inhibition): at 100 nM. As to the method: Inhibition of the Binding of [^3H]Ketanserin to 5-HT2A Receptors
The compounds were tested with respect to their affinity for 5-HT2A receptors by determining their ability to inhibit the binding of [^3H]Ketanserin (0.50 nM) to membranes from rat brain (cortex) in vitro. Method described in Sanchez et al. Drug Dev. Res. 1991, 22, 239-250.

In data set [3] the target is T3, dopamine D4 receptors (Homo sapiens, UniProt P21917).
T3 sequence (P21917 1-419): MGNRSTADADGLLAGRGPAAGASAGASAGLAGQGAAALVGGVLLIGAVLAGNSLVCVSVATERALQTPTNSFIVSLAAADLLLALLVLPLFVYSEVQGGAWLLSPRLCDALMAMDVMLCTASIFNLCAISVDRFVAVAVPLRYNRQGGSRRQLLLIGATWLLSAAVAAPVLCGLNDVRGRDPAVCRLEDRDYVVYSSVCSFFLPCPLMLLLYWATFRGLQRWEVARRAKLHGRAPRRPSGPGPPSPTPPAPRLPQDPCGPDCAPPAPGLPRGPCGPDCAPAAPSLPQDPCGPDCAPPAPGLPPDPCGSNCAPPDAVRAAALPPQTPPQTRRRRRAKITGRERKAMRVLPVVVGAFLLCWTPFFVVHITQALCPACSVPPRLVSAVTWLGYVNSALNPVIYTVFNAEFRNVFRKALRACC
The settings on record: various in vitro efficacy assays, Gazi et al.; cited from earlier work.

[4] abbreviates: [3H]Ketanserin 0.50 nM, membranes from rat brain (cortex), read-out: 5-HT2A-binding (IC50).
Setting [5] is: [3H]Ketanserin 0.50 nM, membranes from rat brain (cortex).

Where a name gives a salt, the structure may show the parent alone. Read-outs that look alike come from different tables or passages of the source.

As usually defined, the melting point is the temperature, or range, at which the solid turns liquid. Molecule `O=C1CCc2ccccc2N1CCCCN1CCN(c2ccc3[nH]ccc3c2)CC1` (as salt: hydrochloride) [Compound 2b, 5-{4-[4-(2-Oxo-3,4-dihydro-2H-quinolin-1-yl)butan-1-yl]piperazin-1-yl}-1H-indole] displayed a melting point of 233 to 236 °C. As usually defined, the IC50 is the concentration needed to halve the response being measured. As for `O=C1CCc2ccccc2N1CCN1CCN(c2ccc3[nH]ccc3c2)CC1` [Compound 1, 5-{4-[2-(2-Oxo-3,4-dihydro-2H-quinolin-1-yl)ethyl]piperazin-1-yl}-1H-indole], in data set [1], the “D4-binding (% inhibition)” value is 90% at 50 nM. For the same molecule, the IC50 in data set [2] (setting [4]) is 29 nM. `O=C1CCc2ccccc2N1CCCN1CCN(c2ccc3[nH]ccc3c2)CC1` [Compound 2a, 5-{4-[3-(2-Oxo-3,4-dihydro-2H-quinolin-1-yl)propan-1-yl]piperazin-1-yl}-1H-indole]: the IC50 in data set [1] was determined as 3.2 nM; in data set [2] (setting [4]) it was 13 nM. In the case of `O=C1CCc2ccccc2N1CCCCN1CCN(c2ccc3[nH]ccc3c2)CC1` [Compound 2b, 5-{4-[4-(2-Oxo-3,4-dihydro-2H-quinolin-1-yl)butan-1-yl]piperazin-1-yl}-1H-indole], the IC50 in data set [1] amounted to 18 nM; in data set [2] (setting [4]), 17 nM.

Consider `O=C1CCc2ccccc2N1CCCN1CCN(c2ccc3cc[nH]c3c2)CC1` [Compound 2c], for which, in data set [1], the “D4-binding (% inhibition)” value is listed as 94% at 50 nM. For the same molecule, the IC50 in data set [2] (setting [4]) was 32 nM. As a reminder, the inhibition is the share of the control response that was lost under treatment. With `O=C1CCc2ccccc2N1CCCCN1CCN(c2ccc3cc[nH]c3c2)CC1` [Compound 2d, 6-{4-[4-(2-Oxo-3,4-dihydro-2H-quinolin-1-yl)butan-1-yl]piperazin-1-yl}-1H-indole], the “D4-binding (% inhibition)” value in data set [1] is 58% at 50 nM. The inhibition at 0.1 µM in data set [2] turned out to be 46%. For the molecule `O=C1CCc2ccccc2N1CCCN1CC=C(c2ccc3[nH]ccc3c2)CC1` [Compound 2e, 5-{1-[3-(2-Oxo-3,4-dihydro-2H-quinolin-1-yl)propan-1-yl]-3,6-dihydro-2H-pyridin-4-yl}-1H-indole], the 50% inhibitory concentration (IC50) in data set [1] was 0.97 nM; in data set [2], 6.6 nM. Regarding `O=C1CCc2ccccc2N1CCCN1CCC(c2ccc3[nH]ccc3c2)CC1` [Compound 2f, 5-{1-[3-(2-Oxo-3,4-dihydro-2H-quinolin-1-yl)propan-1-yl]piperidin-4-yl}-1H-indole], the IC50 in data set [1] was determined as 1.6 nM; in data set [2] (setting [4]), 22 nM.

As for `O=C1COc2ccccc2N1CCCCN1CCN(c2ccc3[nH]ccc3c2)CC1` [Compound 3a, 5-{4-[4-(3-Oxo-3,4-dihydro-2H-1,4-benzoxazin-4-yl)butan-1-yl]piperazin-4-yl}-1H-indole], the “D4-binding (% inhibition)” value in data set [1] is listed as 56% at 50 nM. Moreover, in data set [2] (setting [5]), the “5-HT2A-binding (% inhibition)” value worked out at 89% at 100 nM. With `O=C1c2ccccc2CCN1CCCN1CCN(c2ccc3[nH]ccc3c2)CC1` [Compound 3b], the “D4-binding (% inhibition)” value in data set [1] amounted to 78% at 50 nM. For the same molecule, the IC50 in data set [2] (setting [4]) is 90 nM.

With `O=C1c2ccccc2CCN1CCCCN1CCN(c2ccc3[nH]ccc3c2)CC1` [Compound 3c], the “D4-binding (% inhibition)” value in data set [1] is given as 56% at 50 nM. In data set [2] (setting [5]), the “5-HT2A-binding (% inhibition)” value came out at 93% at 100 nM.

As to `c1ccc2c(c1)CCCN2CCCN1CCN(c2ccc3[nH]ccc3c2)CC1` [Compound 4a, 5-{4-[3-(3,4-Dihydro-2H-quinolin-1-yl)propan-1-yl]piperazin-1-yl}-1H-indole], the values for the IC50 in data set [1] and in data set [2] (setting [4]) were 2.6 nM and 27 nM, respectively. For `c1ccc2c(c1)CCCN2CCCN1CCN(c2ccc3[nH]ccc3c2)CC1` [Compound 4b, 5-{4-[3-(3,4-Dihydro-2H-quinolin-1-yl)propan-1-yl]piperazin-1-yl}-1H-indole], the results for the IC50 in data set [1] and in data set [2] (setting [4]) were 8.8 nM and 19 nM, respectively. For the molecule `O=C(CCN1CCN(c2ccc3[nH]ccc3c2)CC1)N1CCc2ccccc2C1` [Compound 5a, 5-{4-[3-(3,4-Dihydro-1H-isoquinolin-2-yl)-3-oxopropan-1-yl]piperazin-1-yl}-1H-indole], in data set [1], the “D4-binding (% inhibition)” value stood at 73% at 50 nM. Besides, the inhibition at 0.1 µM in data set [2] worked out at 29%.

`O=C(CCCN1CCN(c2ccc3[nH]ccc3c2)CC1)N1CCc2ccccc2C1` [Compound 5b, 5-{4-[4-(3,4-Dihydro-1H-isoquinolin-2-yl)-4-oxobutan-1-yl]piperazin-1-yl}-1H-indole] had a melting point of 122 to 125 °C. Further, the “D4-binding (% inhibition)” value in data set [1] came to 81% at 50 nM. The IC50 in data set [2] (setting [4]) turned out to be 4 nM. For `CC(C)Oc1cccnc1N(C)C1CCN(Cc2ccccc2)CC1` [Compound U-101958], in data set [3], the “Functional activity at D4 receptor (literature)” value is recorded as “partial D4 receptor agonists”.
